Data from US6287792A, “Drug delivery of antisense oligonucleotides and peptides to tissues in vivo and to cells using avidin-biotin technology” (The Regents of the University of California, priority 1991, dated 2001).

Tested on: isolated bovine brain capillaries (uptake of avidin-biotin complex)
Test: uptake of the avidin-biotin complex by isolated bovine brain capillaries in vitro
Type: cell-based
Conditions: 50 mM, 23° C., thirty minutes
Protocol: The in vitro studies were performed with isolated bovine brain capillaries used as an in vitro model of blood brain barrier (BBB) transport (16). […] The modest uptake of radioactivity in the presence of buffer alone represents uptake of [P^32 ] nucleotide or phosphate ion generated by capillary nuclease or phosphatase degradation of the antisense oligonucleotide. All incubations were performed at 23° C. for thirty minutes with brain capillary (about 100 μg protein per flask).

## CO[C@H]1O[C@H](CO)[C@@H](O)[C@H](O)[C@@H]1O [α-methylmannoside]
  inhibition of the uptake of the avidin-biotin complex by brain capillaries: no significant inhibition
